# Like-named read-outs stand apart in the source and are kept apart here. Square brackets hold non-standard residues; d marks the D form. Peptide text beside a SMILES is read from it. * marks the point of attachment. ξ: configuration not given here. Piperidin1yl(4-NH2,4-CO2Me) = COC(=O)C1(N)CCN(*)CC1; Pyrrolidinyl(3-NH2,3-CO2Me) = COC(=O)C1(N)CCN(*)C1; Pyrrolidino(3-NH2-3-COOH) = NC1(C(=O)O)CCN(*)C1; dAla(cPr) = N[C@H](CC1CC1)C(=O)O; Tic = O=C(O)[C@@H]1Cc2ccccc2CN1; dTic = O=C(O)[C@H]1Cc2ccccc2CN1; Aic = NC1(C(=O)O)Cc2ccccc2C1; ξL = CC(C)CC(N)C(=O)O
# Legend:
# [1] = biological target: recombinant human delta (DOR) opioid receptor (Homo sapiens (Human), UniProt P41143); assay: Opioid receptor radioligand binding assay, DOR
# [2] = biological target: recombinant human kappa (KOR) opioid receptor (Homo sapiens (Human), UniProt P41145); assay: biochemical; type: binding; settings: HEK293 cell membranes, 0.5 nM [3H]diprenorphine
# [3] = biological target: recombinant human mu (MOR) opioid receptor (Homo sapiens (Human), UniProt P35372); assay: Opioid receptor radioligand binding assay, MOR
# [4] = biological target: Opioid Kappa Receptor (recombinant human, HEK293 cells) (Homo sapiens (Human), UniProt P41145); assay: cell-based; settings: read-out: EC50
# [5] = HEK293 cell membranes, 0.5 nM [3H]DADLE, read-out: DOR, IC50
# [6] = HEK293 cell membranes, 0.5 nM [3H]DAMGO, read-out: MOR, IC50
# Chain of recombinant human delta (DOR) opioid receptor (P41143 whole entry, looked up): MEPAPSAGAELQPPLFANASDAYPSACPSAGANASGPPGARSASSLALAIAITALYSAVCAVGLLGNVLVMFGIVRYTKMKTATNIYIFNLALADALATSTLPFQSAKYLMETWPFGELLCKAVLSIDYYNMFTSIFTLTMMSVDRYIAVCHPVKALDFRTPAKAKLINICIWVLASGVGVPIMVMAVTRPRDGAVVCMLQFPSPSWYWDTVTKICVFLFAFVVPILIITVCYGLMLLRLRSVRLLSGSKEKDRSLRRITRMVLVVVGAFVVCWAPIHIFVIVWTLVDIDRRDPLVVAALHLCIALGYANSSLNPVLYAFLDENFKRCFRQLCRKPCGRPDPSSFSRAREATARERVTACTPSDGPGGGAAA
Structure (SMILES),"IC50 [1, 5] [nM]",IC50 [2] [nM],"IC50 [3, 6] [nM]",EC50 [4] [nM],IC50 [1] [nM],IC50 [3] [nM]
CC(C)C[C@@H](NC(=O)[C@@H](Cc1ccccc1)NC(=O)[C@H](N)Cc1ccccc1)C(=O)N[C@H](CCCCN)C(=O)N1CCC(NC(=O)C(N)=O)CC1 [Compound 13-33],> 10000,0.54,> 10000,,,
"COC(=O)C1(N)CCN(C(=O)[C@@H](CCCCN)NC(=O)[C@@H](CC2CC2)NC(=O)[C@@H](Cc2ccccc2)NC(=O)[C@H](N)Cc2ccccc2)CC1 [Compound 112] (H-[dF][dF][dAla(cPr)][dK]-{Piperidin1yl(4-NH2,4-CO2Me)})",> 10000,1,15.2,5.95,,
CC(C)C[C@@H](NC(=O)[C@@H](Cc1ccccc1)NC(=O)[C@H](N)Cc1ccccc1)C(=O)N[C@H](CCCCN)C(=O)N1CCC(NC(=O)/C=C\C(=O)NC(N)=O)CC1 [Compound 13-54],,0.21,,15.1,> 10000,1530
CC(C)C[C@@H](NC(=O)[C@@H](Cc1ccccc1)NC(=O)[C@H](N)Cc1ccccc1)C(=O)N[C@H](CCCCN)C(=O)N1CCNC(=O)C1 [Compound 13-14],> 10000,0.21,> 10000,12.9,,
COC(=O)/C=C/C(=O)NC1CCN(C(=O)[C@@H](CCCCN)NC(=O)[C@@H](CC(C)C)NC(=O)[C@@H](Cc2ccccc2)NC(=O)[C@H](N)Cc2ccccc2)CC1 [Compound 13-19],> 10000,0.33,> 727,75.8,,
CC(C)C[C@@H](NC(=O)[C@@H](Cc1ccccc1)NC(=O)[C@H](N)Cc1ccccc1)C(=O)N[C@H](CCCCN)C(=O)N1CCC(NC(=O)C(N)C(=O)O)CC1 (stereo partly drawn) [Compound 13-40],> 10000,0.3,6390,7.48,,
CC(C)C[C@@H](NC(=O)[C@@H](Cc1ccccc1)NC(=O)[C@H](N)Cc1ccccc1)C(=O)N[C@H](CCCCN)C(=O)N1CCC(NC(=O)C(=O)NC2CC2)CC1 [Compound 13-22],> 10000,0.096,> 10000,24.8,,
CC(C)C[C@@H](NC(=O)[C@@H](Cc1ccccc1)NC(=O)[C@H](N)Cc1ccccc1)C(=O)N[C@H](CCCCN)C(=O)NCc1n[nH]c(=O)[nH]1 [Compound 13-45],,0.43,,1.53,> 10000,> 10000
COCCOCCOCCNC(=O)[C@@H](CCCCN)NC(=O)[C@@H](CC(C)C)NC(=O)[C@@H](Cc1ccccc1)NC(=O)[C@H](N)Cc1ccccc1 [Compound 13-5],> 10000,5.92,> 10000,15.8,,
CCNC(=O)N1CCN(C(=O)[C@@H](CCCCN)NC(=O)[C@@H](CC(C)C)NC(=O)[C@@H](Cc2ccccc2)NC(=O)[C@H](N)Cc2ccccc2)CC1 [Compound 13-64],> 10000,0.47,> 10000,2.91,,
CNC(=O)C(=O)N1CCC(NC(=O)[C@@H](CCCCN)NC(=O)[C@@H](CC(C)C)NC(=O)[C@@H](Cc2ccccc2)NC(=O)[C@H](N)Cc2ccccc2)CC1 [Compound 13-32],,8.49,,26.5,> 10000,7110
COC(=O)C1(N)CCN(C(=O)[C@@H](CCCCN)NC(=O)[C@@H](CC(C)C)NC(=O)[C@@H](Cc2ccccc2)NC(=O)[C@H](N)Cc2ccc(F)cc2)C1 (stereo partly drawn) [Compound 181],,,,8.7,,
CC(C)C[C@@H](NC(=O)[C@@H](Cc1ccccc1)NC(=O)[C@H](N)Cc1ccccc1)C(=O)N[C@H](CCCCN)C(=O)N1CCC(NC(=O)C(N)=O)CC1 [Compound 13-57],> 10000,,,,,
CCCN(C(=O)OC)C1CCN(C(=O)[C@@H](CCCCN)NC(=O)[C@@H](CC(C)C)NC(=O)[C@@H](Cc2ccccc2)NC(=O)[C@H](N)Cc2ccccc2)CC1 [Compound 13-49],> 10000,0.46,> 10000,,,
CC(C)C[C@@H](NC(=O)[C@@H](Cc1ccccc1)NC(=O)[C@H](N)Cc1ccccc1)C(=O)N[C@H](CCCCN)C(=O)NCCC[C@H](N)C(=O)O [Compound 13-44],,,,4.75,,
CCCC[C@@H](NC(=O)[C@@H](Cc1ccccc1)NC(=O)[C@H](N)Cc1ccccc1)C(=O)N[C@H](Cc1cnc(N)nc1)C(=O)N1CCC(N)(C(=O)OC)C1 (stereo partly drawn) [Compound 82],> 10000,42.5,5170,,,
CC(C)C[C@@H](NC(=O)[C@@H](Cc1ccccc1)NC(=O)[C@H](N)Cc1ccccc1)C(=O)N[C@H](CCCCN)C(=O)N1CCC(O)(CO)CC1 [Compound 13-65],,,,1.68,,
"COC(=O)C1(N)CCN(C(=O)[C@@H](CCCNC(=N)N)NC(=O)[C@H]2CCCN2C(=O)[C@@H](Cc2ccccc2)NC(=O)[C@H](N)Cc2ccccc2)CC1 [Compound 22] (H-[dF][dF][dP][dR]-{Piperidin1yl(4-NH2,4-CO2Me)})",> 10000,200,5060,,,

Structure (SMILES),"IC50 [1, 5] [nM]",IC50 [2] [nM],"IC50 [3, 6] [nM]",EC50 [4] [nM],IC50 [1] [nM],IC50 [3] [nM]
CC(C)C[C@@H](NC(=O)[C@@H](Cc1ccccc1)NC(=O)[C@H](N)Cc1ccccc1)C(=O)N[C@H](CCCCN)C(=O)N1CCN(C(=O)/C=C/C(=O)O)CC1 [Compound 13-25],> 10000,5.56,> 10000,,,
"COC(=O)C1(N)CCN(C(=O)[C@@H](CCCCN)NC(=O)[C@@H](CC(C)C)NC(=O)[C@@H](Cc2ccccc2)NC(=O)[C@H]2Cc3ccccc3CN2)C1 (stereo partly drawn) [Compound 168] (H-[dTic][dF][dL][dK]-{Pyrrolidinyl(3-NH2,3-CO2Me)})",,4.23,,,> 10000,2410
"COC(=O)C1(N)CCN(C(=O)[C@@H](CCCNC(=N)N)NC(=O)[C@H]2CCCN2C(=O)[C@@H](Cc2ccccc2)NC(=O)[C@H](N)Cc2ccccc2)C1 (stereo partly drawn) [Compound 28] (H-[dF][dF][dP][dR]-{Pyrrolidinyl(3-NH2,3-CO2Me)})",> 10000,> 200,> 10000,,,
COC(=O)C1(N)CCN(C(=O)[C@@H](CCCCN)NC(=O)[C@@H](CC(C)C)NC(=O)[C@@H](Cc2ccccc2)NC(=O)[C@H](N)Cc2ccc(F)cc2)CC1 [Compound 184],,,,6.26,,
CC(C)C[C@@H](NC(=O)[C@@H](Cc1ccccc1)NC(=O)[C@H](N)Cc1ccccc1)C(=O)N[C@H](CCCCN)C(=O)NCc1ccncc1O [Compound 13-11],> 10000,0.91,> 10000,,,
CC(C)C[C@@H](NC(=O)[C@@H](Cc1ccccc1)NC(=O)[C@H](N)Cc1ccccc1)C(=O)N[C@H](CCCCN)C(=O)NCc1cccc(C(=O)O)n1 [Compound 13-6],,,,30.5,,
"COC(=O)C1(N)CCN(C(=O)[C@@H](CCCCN)NC(=O)C(CC(C)C)NC(=O)[C@@H](Cc2ccccc2)NC(=O)C2(N)Cc3ccccc3C2)C1 (stereo partly drawn) [Compound 156] (H-[Aic][dF][ξL][dK]-{Pyrrolidinyl(3-NH2,3-CO2Me)})",> 10000,2.3,5370,,,
"COC(=O)C1(N)CCN(C(=O)[C@@H](CCCCN)NC(=O)[C@H]2CCCN2C(=O)[C@@H](Cc2ccccc2)NC(=O)[C@H](N)Cc2ccccc2)CC1 [Compound 89] (H-[dF][dF][dP][dK]-{Piperidin1yl(4-NH2,4-CO2Me)})",> 10000,> 200,> 10000,,,
"COC(=O)C1(N)CCN(C(=O)[C@@H](CCCCN)NC(=O)C(CC(C)C)NC(=O)[C@@H](Cc2ccccc2)NC(=O)C2(N)Cc3ccccc3C2)CC1 (stereo partly drawn) [Compound 158] (H-[Aic][dF][ξL][dK]-{Piperidin1yl(4-NH2,4-CO2Me)})",> 10000,0.9,5370,,,
"COC(=O)C1(N)CCN(C(=O)[C@@H](CCCCN)NC(=O)[C@@H](CC(C)C)NC(=O)[C@@H]2Cc3ccccc3CN2C(=O)[C@H](N)Cc2ccccc2)C1 (stereo partly drawn) [Compound 146] (H-[dF][Tic][dL][dK]-{Pyrrolidinyl(3-NH2,3-CO2Me)})",> 10000,164,> 10000,,,
CC(C)C[C@@H](NC(=O)[C@@H](Cc1ccccc1)NC(=O)[C@H]1Cc2ccccc2CN1)C(=O)N[C@H](CCCCN)C(=O)N1CCC(N)(C(=O)O)C1 (stereo partly drawn) [Compound 169] (H-[dTic][dF][dL][dK]-{Pyrrolidino(3-NH2-3-COOH)}),,,,167,,
CC(C)C[C@@H](NC(=O)[C@@H](Cc1ccccc1)NC(=O)[C@H](N)Cc1ccccc1)C(=O)N[C@H](CCCCN)C(=O)NC1CCN(C(=O)C(=O)NC2CC2)CC1 [Compound 13-37],> 10000,11,9290,,,
"COC(=O)C1(N)CCN(C(=O)[C@@H](CCCCN)NC(=O)[C@H]2CCCN2C(=O)[C@@H](Cc2ccccc2)NC(=O)[C@H](N)Cc2ccccc2)C1 (stereo partly drawn) [Compound 92] (H-[dF][dF][dP][dK]-{Pyrrolidinyl(3-NH2,3-CO2Me)})",> 10000,33,> 10000,,,
COCCN(CCOC)C(=O)[C@@H](CCCCN)NC(=O)[C@@H](CC(C)C)NC(=O)[C@@H](Cc1ccccc1)NC(=O)[C@H](N)Cc1ccccc1 [Compound 13-3],> 10000,28.1,> 10000,,,
N=C(N)NCCC[C@@H](NC(=O)[C@@H](CC1CC1)NC(=O)[C@@H](Cc1ccccc1)NC(=O)[C@H](N)Cc1ccccc1)C(=O)N1CCC(N)(C(=O)O)C1 (stereo partly drawn) [Compound 134] (H-[dF][dF][dAla(cPr)][dR]-{Pyrrolidino(3-NH2-3-COOH)}),,2.35,,12.6,,
CC(C)C[C@@H](NC(=O)[C@@H](Cc1ccccc1)NC(=O)[C@H](N)Cc1ccccc1)C(=O)N[C@H](CCCCN)C(=O)N1CCC2(CC1)CNC(=O)N2 [Compound 13-46],> 10000,0.31,> 10000,,,
NCCCC[C@@H](NC(=O)[C@@H](CC1CC1)NC(=O)[C@@H](Cc1ccccc1)NC(=O)[C@H](N)Cc1ccccc1)C(=O)N1CCC(N)(C(=O)O)C1 (stereo partly drawn) [Compound 119] (H-[dF][dF][dAla(cPr)][dK]-{Pyrrolidino(3-NH2-3-COOH)}),,2.36,,23.1,,

# Reference: patent US12215173B2, “Kappa opioid receptor peptide amide ligands” (priority 2019, dated 2025)
